How the values were obtained:
[1] = molecular target: T1, HDAC1 enzyme (Homo sapiens, UniProt Q13547); assay: HDAC1 enzyme inhibitory assay (HDAC-Glo I/II Assay kit); format: biochemical; conditions: 1 μM test compound; for inhibition at 1 µM: read-out: HDAC1 inhibitory rate (%) (1 μM)
T1 construct: prepared by transducing full length HDAC1 and HDAC6 genes into Sf-9 insect cells; GST; purchased SignalChem; host or cells: Sf-9 insect cells
Outline: (§1)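 Sf-9-expressed GST-purified full-length HDAC1/HDAC6; cpd + enzyme 60 min RT, 24 mM Tris-HCl pH 7.5, 135 mM NaCl, 0.6 mM glutathione, 0.01% Tween-20; substrate-developer 20 min RT; luminescence; no-enzyme wells = 100% inhibition.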

[2] = molecular target: T2, HDAC6 enzyme (Homo sapiens, UniProt Q9UBN7); assay: HDAC6 enzyme inhibitory assay (HDAC-Glo I/II Assay kit); format: biochemical; conditions: 1 μM test compound; read-out: HDAC6 inhibitory rate (%) (1 μM)
T2 construct: prepared by transducing full length HDAC1 and HDAC6 genes into Sf-9 insect cells; GST; purchased SignalChem; host or cells: Sf-9 insect cells
T2 sequence (Q9UBN7 1-1215): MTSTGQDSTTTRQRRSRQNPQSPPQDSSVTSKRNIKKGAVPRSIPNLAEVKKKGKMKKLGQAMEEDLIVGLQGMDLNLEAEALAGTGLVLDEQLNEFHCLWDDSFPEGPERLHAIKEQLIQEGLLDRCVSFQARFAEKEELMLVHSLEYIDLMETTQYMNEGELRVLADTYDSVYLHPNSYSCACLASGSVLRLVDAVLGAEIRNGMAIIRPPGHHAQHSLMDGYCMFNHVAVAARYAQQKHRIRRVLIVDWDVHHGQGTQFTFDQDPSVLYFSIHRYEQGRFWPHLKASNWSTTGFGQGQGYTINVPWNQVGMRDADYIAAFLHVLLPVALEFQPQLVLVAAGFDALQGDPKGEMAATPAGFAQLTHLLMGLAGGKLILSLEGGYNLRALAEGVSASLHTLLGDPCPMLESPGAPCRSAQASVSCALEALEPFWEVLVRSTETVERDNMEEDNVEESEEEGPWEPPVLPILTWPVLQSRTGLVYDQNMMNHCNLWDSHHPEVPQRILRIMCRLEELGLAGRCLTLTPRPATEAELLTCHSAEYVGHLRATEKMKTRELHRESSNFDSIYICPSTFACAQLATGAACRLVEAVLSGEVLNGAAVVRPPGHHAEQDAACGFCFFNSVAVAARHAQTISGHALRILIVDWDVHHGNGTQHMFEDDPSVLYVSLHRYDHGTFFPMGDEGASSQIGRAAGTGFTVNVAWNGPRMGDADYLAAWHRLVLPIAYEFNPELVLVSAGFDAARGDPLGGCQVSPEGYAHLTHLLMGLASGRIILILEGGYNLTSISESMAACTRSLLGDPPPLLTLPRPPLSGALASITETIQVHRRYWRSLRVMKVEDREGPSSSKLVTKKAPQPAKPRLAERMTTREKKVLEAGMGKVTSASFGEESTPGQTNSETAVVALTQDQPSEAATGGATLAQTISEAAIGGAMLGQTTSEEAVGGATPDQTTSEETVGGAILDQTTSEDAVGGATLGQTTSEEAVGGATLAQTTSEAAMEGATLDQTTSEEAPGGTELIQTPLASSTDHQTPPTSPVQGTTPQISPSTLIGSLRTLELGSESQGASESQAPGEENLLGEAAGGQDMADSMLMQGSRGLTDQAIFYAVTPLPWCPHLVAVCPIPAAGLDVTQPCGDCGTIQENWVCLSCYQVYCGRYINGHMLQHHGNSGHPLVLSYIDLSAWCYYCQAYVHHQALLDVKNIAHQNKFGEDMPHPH
Outline: as §1

T1 sequence (Q13547 whole entry): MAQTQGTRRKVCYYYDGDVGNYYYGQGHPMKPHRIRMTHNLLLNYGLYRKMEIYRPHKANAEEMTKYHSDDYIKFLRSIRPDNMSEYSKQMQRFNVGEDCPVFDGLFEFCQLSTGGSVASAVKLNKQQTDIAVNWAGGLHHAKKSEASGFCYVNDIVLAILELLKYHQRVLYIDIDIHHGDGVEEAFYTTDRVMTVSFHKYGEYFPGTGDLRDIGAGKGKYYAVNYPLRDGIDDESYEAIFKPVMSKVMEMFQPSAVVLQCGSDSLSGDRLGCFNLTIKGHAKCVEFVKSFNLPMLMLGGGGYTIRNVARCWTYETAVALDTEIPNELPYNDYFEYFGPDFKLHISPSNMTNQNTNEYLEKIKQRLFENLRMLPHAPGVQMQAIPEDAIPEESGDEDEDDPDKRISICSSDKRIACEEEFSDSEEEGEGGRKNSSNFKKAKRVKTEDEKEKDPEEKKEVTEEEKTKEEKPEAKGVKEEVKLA

Structure (SMILES) | inhibition at 1 µM [1] | inhibition at 1 µM [2] | HDAC1 inhibitory rate (%) (1 μM) ([1]; 1 µM)
Cc1cc(C#N)ccc1C(=O)N1CCOC[C@@H]1CNC(=O)c1ccc(-c2noc(C(F)(F)F)n2)cc1 [Example 87, N-(((3S)-4-(4-cyano-2-methylbenzoyl)morpholin-3-yl)methyl)-4-(5-(trifluoromethyl)-1,2,4-oxadiazol-3-yl)benzamide] | 29% | 98% | –
O=C(C[C@H]1COCCN1C(=O)c1ccccc1)Nc1ccc(-c2noc(C(F)(F)F)n2)cc1 [Example 160, 2-((3S)-4-benzoylmorpholin-3-yl)-N-(4-(5-(trifluoromethyl)-1,2,4-oxadiazol-3-yl)phenyl)acetamide] | 15% | 98% | –
Cn1nc2ccccc2c1C(=O)N1CCOC[C@@H]1CNC(=O)c1ccc(-c2noc(C(F)(F)F)n2)cc1 [Example 82, N-(((3S)-4-((2-methyl-2H-indazol-3-yl)carbonyl)morpholin-3-yl)methyl)-4-(5-(trifluoromethyl)-1,2,4-oxadiazol-3-yl)benzamide] | 60% | 101% | –
O=C(NCC1COCCN1C(=O)c1cccc(C(F)(F)F)c1)c1ccc(-c2noc(C(F)(F)F)n2)cc1 (centres unmarked) [Example 27, N-((4-(3-(trifluoromethyl)benzoyl)morpholin-3-yl)methyl)-4-(5-(trifluoromethyl)-1,2,4-oxadiazol-3-yl)benzamide] | 14% | 99% | –
O=C(NCC1COCCN1C(=O)c1cc2ccccc2o1)c1ccc(-c2noc(C(F)(F)F)n2)cc1 (centres unmarked) [Example 19, N-((4-(1-benzofuran-2-ylcarbonyl)morpholin-3-yl)methyl)-4-(5-(trifluoromethyl)-1,2,4-oxadiazol-3-yl)benzamide] | 24% | 98% | –
Cc1nc2sccn2c1C(=O)N1CCOC[C@@H]1CNC(=O)c1ccc(-c2noc(C(F)(F)F)n2)cc1 [Example 91, N-(((3S)-4-((6-methylimidazo[2,1-b][1,3]thiazol-5-yl)carbonyl)morpholin-3-yl)methyl)-4-(5-(trifluoromethyl)-1,2,4-oxadiazol-3-yl)benzamide] | 42% | 98% | –
O=C(NCC1COCCN1C(=O)C1CCCCC1)c1ccc(-c2noc(C(F)(F)F)n2)s1 (centres unmarked) [Example 254, N-((4-(cyclohexylcarbonyl)morpholin-3-yl)methyl)-5-(5-(trifluoromethyl)-1,2,4-oxadiazol-3-yl)thiophene-2-carboxamide] | 33% | 98% | –
Cc1nonc1C(=O)N1CCOC[C@@H]1CNC(=O)c1ccc(-c2noc(C(F)(F)F)n2)cn1 [Example 194, N-(((3S)-4-((4-methyl-1,2,5-oxadiazol-3-yl)carbonyl)morpholin-3-yl)methyl)-5-(5-(trifluoromethyl)-1,2,4-oxadiazol-3-yl)pyridine-2-carboxamide] | 36% | 97% | –
O=C(NCC1COCCN1C(=O)C(F)(F)c1ccccc1)c1ccc(-c2noc(C(F)(F)F)n2)s1 (centres unmarked) [Example 246, N-((4-(difluoro(phenyl)acetyl)morpholin-3-yl)methyl)-5-(5-(trifluoromethyl)-1,2,4-oxadiazol-3-yl)thiophene-2-carboxamide] | 52% | 99% | –
CC(C)(C(=O)N1CCOC[C@@H]1CNC(=O)c1ccc(-c2noc(C(F)(F)F)n2)s1)c1ccccc1 [Example 263, N-(((3S)-4-(2-methyl-2-phenylpropanoyl)morpholin-3-yl)methyl)-5-(5-(trifluoromethyl)-1,2,4-oxadiazol-3-yl)thiophene-2-carboxamide] | 32% | 99% | –

Second part, the compound after the results:

inhibition at 1 µM [1] | inhibition at 1 µM [2] | HDAC1 inhibitory rate (%) (1 μM) ([1]; 1 µM) | Structure (SMILES)
10% | 98% | – | O=C(NC[C@H]1COCCN1C(=O)c1cccc(OCCO)c1)c1ccc(-c2noc(C(F)(F)F)n2)cc1 [Example 302, N-(((3S)-4-(3-(2-hydroxyethoxy)benzoyl)morpholin-3-yl)methyl)-4-(5-(trifluoromethyl)-1,2,4-oxadiazol-3-yl)benzamide]
15% | 97% | – | Cc1csc(C(=O)N2CCOC[C@H]2CNC(=O)c2ccc(-c3noc(C(F)(F)F)n3)cc2)c1 [Example 145, N-(((3R)-4-((4-methyl-2-thienyl)carbonyl)morpholin-3-yl)methyl)-4-(5-(trifluoromethyl)-1,2,4-oxadiazol-3-yl)benzamide]
– | 97% | 17% | O=C(NCC1COCCN1C(=O)c1cccc(F)c1)c1ccc(-c2noc(C(F)(F)F)n2)cc1 (stereo in doubt) [Example 113, N-(((3R)-4-(3-fluorobenzoyl)morpholin-3-yl)methyl)-4-(5-(trifluoromethyl)-1,2,4-oxadiazol-3-yl)benzamide]
5% | 95% | – | Cc1nn(C)c(C)c1C(=O)N1CCOC[C@@H]1CNC(=O)c1ccc(-c2noc(C(F)(F)F)n2)cc1 [Example 67, 4-(5-(trifluoromethyl)-1,2,4-oxadiazol-3-yl)-N-(((3S)-4-((1,3,5-trimethyl-1H-pyrazol-4-yl)carbonyl)morpholin-3-yl)methyl)benzamide]
23% | 100% | – | O=C(NCC1COCCN1C(=O)CCc1ccccc1)c1ccc(-c2noc(C(F)(F)F)n2)cc1 (centres unmarked) [Example 22, N-((4-(3-phenylpropanoyl)morpholin-3-yl)methyl)-4-(5-(trifluoromethyl)-1,2,4-oxadiazol-3-yl)benzamide]
35% | 98% | – | O=C(NCC1COCCN1C(=O)C1(c2ccccc2)COC1)c1ccc(-c2noc(C(F)(F)F)n2)cc1 (stereo in doubt) [Example 103, N-(((3S)-4-((3-phenyloxetan-3-yl)carbonyl)morpholin-3-yl)methyl)-4-(5-(trifluoromethyl)-1,2,4-oxadiazol-3-yl)benzamide]
24% | 101% | – | O=C(NCC1COCCN1C(=O)c1cccc(Cl)c1)c1ccc(-c2noc(C(F)(F)F)n2)cc1 (centres unmarked) [Example 7, N-((4-(3-chlorobenzoyl)morpholin-3-yl)methyl)-4-(5-(trifluoromethyl)-1,2,4-oxadiazol-3-yl)benzamide]
3% | 102% | – | C[C@H]1CCCN1C(=O)N1CCOC[C@@H]1CNC(=O)c1ccc(-c2noc(C(F)(F)F)n2)cc1 [Example 288, N-(((3S)-4-(((2S)-2-methylpyrrolidin-1-yl)carbonyl)morpholin-3-yl)methyl)-4-(5-(trifluoromethyl)-1,2,4-oxadiazol-3-yl)benzamide]
30% | 92% | – | O=C(NCC1COCCN1C(=O)C1CCc2ccccc2O1)c1ccc(-c2noc(C(F)(F)F)n2)cc1 (centres unmarked) [Example 35, N-((4-(3,4-dihydro-2H-chromen-2-ylcarbonyl)morpholin-3-yl)methyl)-4-(5-(trifluoromethyl)-1,2,4-oxadiazol-3-yl)benzamide]
19% | 99% | – | O=C(NCC1COCCN1C(=O)c1ccccc1F)c1ccc(-c2noc(C(F)(F)F)n2)cc1 (centres unmarked) [Example 3]
2% | 76% | – | O=C(NC[C@H]1COCCN1C(=O)N1CCCC1c1cccnc1)c1ccc(-c2noc(C(F)(F)F)n2)cc1 (stereo partly drawn) [Example 292, N-(((3S)-4-((2-(pyridin-3-yl)pyrrolidin-1-yl)carbonyl)morpholin-3-yl)methyl)-4-(5-(trifluoromethyl)-1,2,4-oxadiazol-3-yl)benzamide]
9% | 89% | – | O=C(NC[C@H]1COCCN1C(=O)N1CCCC(CO)C1)c1ccc(-c2noc(C(F)(F)F)n2)cc1 (stereo partly drawn) [Example 276, N-(((3S)-4-((3-(hydroxymethyl)piperidin-1-yl)carbonyl)morpholin-3-yl)methyl)-4-(5-(trifluoromethyl)-1,2,4-oxadiazol-3-yl)benzamide]

— patent US10081624B2, “Heterocyclic compound” (Takeda Pharmaceutical Company Limited, priority 2014, dated 2018)
